Source: patent publication US11760754B2, “Heterocyclic mitochondrial activity inhibitors and uses thereof” (UNIVERSITÉ DE MONTRÉAL, priority 2017, dated 2023)
Like-named read-outs stand apart in the source and are kept apart here.

How the values were obtained:
[1] = system: OCI-AML3 cells; assay: OCI-AML3 cell growth inhibition, dose-response viability assay (CellTiterGlo); format: cell-based; conditions: for EC50: Homo sapiens, OCI-AML-3, 144 h, read-out: AML-3 EC50; for sensitivity of OCI-AML3 relative to OCI-AML5: dose-response curves OCI-AML3 and OCI-AML5
Protocol: Cell dose-response viability assays. […] In the initial screen, compounds were added to seeded cells in serial dilutions (10 dilutions, 1:3, starting from […] 20 μM), in duplicates.
(§1) The potency of the compounds of Example 6 at inhibiting OCI-AML3 cell growth was tested using a procedure similar to that described for Mutritinib in Example 1. […] Murine MLL-AF9 leukemia cells (female cells) were generated by infection with VSV-G-pseudotyped MSCV MLL-AF9 IRES Puro (subcloned from a construct by Frédéric Barabé, Laval U, Quebec, QC, Canada).
(§2) Compounds were added to seeded cells in serial dilutions from 10 μM to 0.5 nM, in duplicates or quadruplicates.

[2] = system: MLL-AF9 cells; assay: MLL-AF9 leukemia cell growth inhibition, dose-response viability assay (CellTiterGlo); format: cell-based, murine; conditions: Mus musculus, MLL-AF9, 120 h, read-out: MLL-AF9 EC50
Protocol: as §1, §2

| SMILES | EC50 ([1]; OCI-AML3 cells, 6 days of culture, CellTiterGlo) | EC50 [2] | EC50 [1] | OCI-AML3 cells sensitive to the compound (dose response) ([1]; OCI-AML3 cells) | sensitivity of OCI-AML3 relative to OCI-AML5 [1] |
| --- | --- | --- | --- | --- | --- |
| C[Si](C)(C)c1cn(CCCCc2ccc(OCc3coc(/C=C/c4ccc(Br)cc4F)n3)cc2)nn1 [Compound 3B, (E)-2-(4-Bromo-2-fluorostyryl)-4-((4-(4-(4-(trimethylsilyl)-1H-1,2,3-triazol-1-yl)butyl)phenoxy)methyl)oxazole] | 500 to 1000 nM | 100 to 500 nM | – | – | – |
| Fc1cc(/C=C/c2nc(COc3ccc(CCCCn4ccnn4)cc3)co2)cc(F)c1F [Compound 120, (E)-4-((4-(4-(1H-1,2,3-triazol-1-yl)butyl)phenoxy)methyl)-2-(3,4,5-trifluorostyryl)oxazole] | – | < 50 nM | 100 to 500 nM | – | – |
| OCCCCc1cn(CCCCc2ccc(OCc3coc(/C=C/c4ccc(C(F)(F)F)cc4)n3)cc2)nn1 [Compound 5] | – | 100 to 500 nM | 1000 to 10000 nM | – | – |
| CNC(=O)CN1CCC(Oc2cc3c(Nc4cccc(Cl)c4F)ncnc3cc2OC)CC1 [Sapitinib, reference compound] | – | – | – | not | – |
| FC(F)(F)c1ccc(/C=C/c2ccc(COc3ccc(CCCCn4ccnn4)cc3)cc2)cc1 [Compound 57, (E)-1-(4-(4-((4-(4-(trifluoromethyl)styryl)benzyl)oxy)phenyl)butyl)-1H-1,2,3-triazole] | – | 500 to 1000 nM | 1000 to 10000 nM | – | – |
| FC(F)(F)Oc1ccc(/C=C/c2nc(COc3ccc(CCCCn4ccnn4)cc3)co2)cc1 [Compound 2] | – | 100 to 500 nM | 100 to 500 nM | – | – |
| COCCNC(=O)OCCc1cn(CCCCc2ccc(OCc3coc(/C=C/c4ccc(C(F)(F)F)cc4F)n3)cc2)nn1 [Compound 96, (E)-2-(1-(4-(4-((2-(2-fluoro-4-(trifluoromethyl)styryl)oxazol-4-yl)methoxy)phenyl)butyl)-1H-1,2,3-triazol-4-yl)ethyl (2-methoxyethyl)carbamate] | – | 100 to 500 nM | 500 to 1000 nM | – | – |
| Fc1cc(C(F)(F)F)ccc1/C=C/c1nc(COc2ccc(CCCCn3ncnn3)cc2)co1 [Compound 110, (E)-4-((4-(4-(2H-tetrazol-2-yl)butyl)phenoxy)methyl)-2-(2-fluoro-4-(trifluoromethyl)styryl)oxazole] | – | 1000 to 10000 nM | 1000 to 10000 nM | – | – |
| O=[N+]([O-])c1ccc(/C=C/c2nc(COc3ccc(CCCCn4ccnc4)cc3)co2)c(F)c1 [Compound 99, (E)-4-((4-(4-(1H-imidazol-1-yl)butyl)phenoxy)methyl)-2-(2-fluoro-4-nitrostyryl)oxazole] | – | 100 to 500 nM | 100 to 500 nM | – | – |
| CN(C)c1cccc2c(S(=O)(=O)NCCNC(=O)c3ccc(/C=C/c4nc(COc5ccc(CCCCn6ccnn6)cc5)co4)cc3)cccc12 [Compound 72, (E)-4-(2-(4-((4-(4-(1H-1,2,3-triazol-1-yl)butyl)phenoxy)methyl)oxazol-2-yl)vinyl)-N-(2-(5-(dimethylamino)naphthalene-1-sulfonamido)ethyl)benzamide] | – | 500 to 1000 nM | 1000 to 10000 nM | – | – |
| Fc1cc(C(F)(F)F)ccc1/C=C/c1nc(COc2ccc(CCCn3ccnn3)cc2)co1 [Compound 105, (E)-4-((4-(3-(1H-1,2,3-triazol-1-yl)propyl)phenoxy)methyl)-2-(2-fluoro-4-(trifluoromethyl)styryl)oxazole] | – | 500 to 1000 nM | 100 to 500 nM | – | – |
| Fc1cc(C(F)(F)F)ccc1/C=C/c1nc(COc2ccc(CCCCn3ccnn3)cc2)cs1 [Compound 131, (E)-4-((4-(4-(1H-1,2,3-triazol-1-yl)butyl)phenoxy)methyl)-2-(2-fluoro-4-(trifluoromethyl)styryl)thiazole] | – | 100 to 500 nM | 100 to 500 nM | – | – |
| Fc1cc(C(F)(F)F)ccc1/C=C/c1nc(COc2ccc(CCCCc3ncccn3)cc2)co1 [Compound 139, (E)-2-(2-fluoro-4-(trifluoromethyl)styryl)-4-((4-(4-(pyrimidin-2-yl)butyl)phenoxy)methyl)oxazole] | – | 1000 to 10000 nM | > 10000 nM | – | – |
| Nc1ccc(/C=C/c2nc(COc3ccc(CCCCn4ccnn4)cc3)co2)c(F)c1 [Compound 66, (E)-4-(2-(4-((4-(4-(1H-1,2,3-triazol-1-yl)butyl)phenoxy)methyl)oxazol-2-yl)vinyl)-3-fluoroaniline] | – | 1000 to 10000 nM | 1000 to 10000 nM | – | – |
| OC(CCCn1ccnn1)c1ccc(OCc2coc(/C=C/c3ccc(Br)cc3F)n2)cc1 (stereo not drawn) [Compound 21, (E)-1-(4-((2-(4-bromo-2-fluorostyryl)oxazol-4-yl)methoxy)phenyl)-4-(1H-1,2,3-triazol-1-yl)butan-1-ol] | – | 50 to 100 nM | 100 to 500 nM | – | – |
| Fc1ncccc1/C=C/c1nc(COc2ccc(CCCCn3ccnn3)cc2)co1 [Compound 83, (E)-4-((4-(4-(1H-1,2,3-triazol-1-yl)butyl)phenoxy)methyl)-2-(2-(2-fluoropyridin-3-yl)vinyl)oxazole] | – | 100 to 500 nM | 500 to 1000 nM | – | – |

| SMILES | EC50 ([1]; OCI-AML3 cells, 6 days of culture, CellTiterGlo) | EC50 [2] | EC50 [1] | OCI-AML3 cells sensitive to the compound (dose response) ([1]; OCI-AML3 cells) | sensitivity of OCI-AML3 relative to OCI-AML5 [1] |
| --- | --- | --- | --- | --- | --- |
| CS(=O)(=O)c1ccc(/C=C/c2nc(COc3ccc(CCCCn4ccnn4)cc3)co2)c(F)c1 [Compound 123, (E)-4-((4-(4-(1H-1,2,3-triazol-1-yl)butyl)phenoxy)methyl)-2-(2-fluoro-4-(methylsulfonyl)styryl)oxazole] | – | 100 to 500 nM | 100 to 500 nM | – | – |
| Fc1cc(C(F)(F)F)ccc1/C=C/c1nc(COc2ccc(CCCCc3nccs3)cc2)co1 [Compound 107, (E)-2-(2-fluoro-4-(trifluoromethyl)styryl)-4-((4-(4-(thiazol-2-yl)butyl)phenoxy)methyl) oxazole] | – | 1000 to 10000 nM | 1000 to 10000 nM | – | – |
| Fc1ccc2oc(-c3nc(COc4ccc(CCCCn5ccnn5)cc4)co3)cc2c1 [Compound 112, 4-((4-(4-(1H-1,2,3-triazol-1-yl)butyl)phenoxy)methyl)-2-(5-fluorobenzofuran-2-yl) oxazole] | – | 50 to 100 nM | 100 to 500 nM | – | – |
| O=C(OCCCCc1ccc(OCc2coc(/C=C/c3ccc(C(F)(F)F)cc3)n2)cc1)N1CCOCC1 [Compound 35, (E)-4-(4-((2-(4-(trifluoromethyl)styryl)oxazol-4-yl)methoxy)phenyl)butyl morpholine-4-carboxylate] | – | 500 to 1000 nM | 1000 to 10000 nM | – | – |
| O=[N+]([O-])c1ccc2cc(-c3nc(COc4ccc(CCCCn5ccnn5)cc4)co3)[nH]c2c1 [Compound 129, 4-((4-(4-(1H-1,2,3-triazol-1-yl)butyl)phenoxy)methyl)-2-(6-nitro-1H-indol-2-yl)oxazole] | – | < 50 nM | < 50 nM | – | – |
| O=C(CCCn1ccnn1)c1ccc(OCc2coc(/C=C/c3ccc(OC(F)(F)F)cc3)n2)cc1 [Compound 18, (E)-4-(1H-1,2,3-triazol-1-yl)-1-(4-((2-(4-(trifluoromethoxy)styryl)oxazol-4-yl)methoxy)phenyl)butan-1-one] | – | 500 to 1000 nM | 1000 to 10000 nM | – | – |
| O=[N+]([O-])c1cc(F)cc2cc(-c3nc(COc4ccc(CCCCn5ccnn5)cc4)co3)[nH]c12 [Compound 126, 4-((4-(4-(1H-1,2,3-triazol-1-yl)butyl)phenoxy)methyl)-2-(5-fluoro-7-nitro-1H-indol-2-yl)oxazole] | – | > 10000 nM | 1000 to 10000 nM | – | – |
| O=S1(=O)CCN(Cc2cn(CCCCc3ccc(OCc4coc(/C=C/c5ccc(C(F)(F)F)cc5F)n4)cc3)nn2)CC1 [Compound 71, (E)-4-((1-(4-(4-((2-(2-fluoro-4-(trifluoromethyl)styryl)oxazol-4-yl)methoxy)phenyl)butyl)-1H-1,2,3-triazol-4-yl)methyl)thiomorpholine 1,1-dioxide] | – | < 50 nM | 100 to 500 nM | – | – |
| FC(F)(F)c1ccc(/C=C/c2nc(COc3ccc(CCCn4ccnn4)cc3)co2)c(-n2nccn2)c1 [Compound 106, (E)-4-((4-(3-(1H-1,2,3-triazol-1-yl)propyl)phenoxy)methyl)-2-(2-(2H-1,2,3-triazol-2-yl)-4-(trifluoromethyl)styryl)oxazole] | – | 1000 to 10000 nM | 1000 to 10000 nM | – | – |
| O=[N+]([O-])c1ccc(/C=C/c2nc(COc3ccc(CCCCn4ccnn4)cc3)co2)cc1 [Compound 40, (E)-4-((4-(4-(1H-1,2,3-triazol-1-yl)butyl)phenoxy)methyl)-2-(4-nitrostyryl)oxazole] | – | 100 to 500 nM | 50 to 100 nM | – | – |
| CC[C@H]1/C=C/C=C/C[C@@H](C)[C@H](O)[C@@](C)(O)C(=O)[C@@H](C)[C@H](O)[C@@H](C)C(=O)[C@@H](C)[C@H](O)[C@@H](C)/C=C/C(=O)O[C@@H]2[C@H](C)[C@H](CC1)O[C@]1(CC[C@H](C)[C@H](C[C@@H](C)O)O1)[C@H]2C [Oligomycin, reference compound] | – | – | – | – | more sensitive than OCI-AML5 |
| C=C(C)[C@H]1Cc2c(ccc3c2O[C@@H]2COc4cc(OC)c(OC)cc4[C@@H]2C3=O)O1 [Rotenone, reference compound] | – | – | – | – | more sensitive than OCI-AML5 |
| COc1cc2c(cc1OC)[C@@H]1C(=O)c3ccc4c(c3O[C@@H]1CO2)C=CC(C)(C)O4 [Deguelin, reference compound] | – | – | – | – | more sensitive than OCI-AML5 |
| O=S1(=O)CCN(CCCCc2ccc(OCc3coc(/C=C/c4ccc(C(F)(F)F)cc4F)n3)cc2)CC1 [Compound 137, (E)-4-(4-(4-((2-(2-fluoro-4-(trifluoromethyl)styryl)oxazol-4-yl)methoxy)phenyl)butyl)thiomorpholine 1,1-dioxide] | – | 500 to 1000 nM | – | – | – |
| O=CNCCCCc1ccc(OCc2coc(/C=C/c3ccc(C(F)(F)F)cc3F)n2)cc1 [Compound 136, (E)-N-(4-(4-((2-(2-fluoro-4-(trifluoromethyl)styryl)oxazol-4-yl)methoxy)phenyl)butyl)formamide] | – | 100 to 500 nM | – | – | – |
| Fc1cc(C(F)(F)F)ccc1/C=C/c1nc(COc2ccc(CCCCn3cnnc3)cc2)co1 [Compound 135, (E)-4-((4-(4-(4H-1,2,4-triazol-4-yl)butyl)phenoxy)methyl)-2-(2-fluoro-4-(trifluoromethyl)styryl)oxazole] | – | 500 to 1000 nM | – | – | – |
